Measurements published in article PMC3914206.

Legend:
panel of 442 kinases [1] = biological target: T1, panel of 442 kinases (Homo sapiens, UniProt Q9UKI8); format: binding; conditions: kinase TLK1; compound concentration 10 µM
T1 construct: purchased KINOMEscan
T1 sequence (Q9UKI8 1-766): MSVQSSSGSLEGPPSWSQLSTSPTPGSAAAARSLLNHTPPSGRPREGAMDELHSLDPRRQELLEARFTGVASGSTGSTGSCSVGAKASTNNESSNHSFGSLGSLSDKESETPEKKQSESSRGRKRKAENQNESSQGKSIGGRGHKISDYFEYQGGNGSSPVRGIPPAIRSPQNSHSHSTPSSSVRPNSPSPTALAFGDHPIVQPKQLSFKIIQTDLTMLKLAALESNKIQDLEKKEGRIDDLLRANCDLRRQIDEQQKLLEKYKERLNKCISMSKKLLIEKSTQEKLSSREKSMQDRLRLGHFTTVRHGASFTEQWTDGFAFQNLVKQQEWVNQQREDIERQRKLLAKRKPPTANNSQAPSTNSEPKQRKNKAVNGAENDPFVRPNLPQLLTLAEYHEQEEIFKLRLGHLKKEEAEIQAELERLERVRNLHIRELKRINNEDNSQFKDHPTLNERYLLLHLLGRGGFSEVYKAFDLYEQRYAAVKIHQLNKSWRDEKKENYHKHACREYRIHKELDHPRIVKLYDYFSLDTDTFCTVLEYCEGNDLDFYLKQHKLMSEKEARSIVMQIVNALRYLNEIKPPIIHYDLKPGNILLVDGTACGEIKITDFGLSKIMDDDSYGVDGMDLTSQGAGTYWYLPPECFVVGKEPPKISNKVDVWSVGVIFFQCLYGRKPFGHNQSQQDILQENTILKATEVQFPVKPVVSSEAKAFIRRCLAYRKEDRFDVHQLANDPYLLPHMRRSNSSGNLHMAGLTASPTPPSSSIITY
Text: (§1) We assessed the selectivity of members of this scaffold using the KINOMEscan methodology across a near comprehensive panel of 442 kinases [[18,27]].

panel of 442 kinases [2] = biological target: T2, panel of 442 kinases (Homo sapiens, UniProt Q12851); format: binding; conditions: Compound Concentration 10 µM
T2 construct: purchased KINOMEscan
T2 sequence (Q12851 1-820): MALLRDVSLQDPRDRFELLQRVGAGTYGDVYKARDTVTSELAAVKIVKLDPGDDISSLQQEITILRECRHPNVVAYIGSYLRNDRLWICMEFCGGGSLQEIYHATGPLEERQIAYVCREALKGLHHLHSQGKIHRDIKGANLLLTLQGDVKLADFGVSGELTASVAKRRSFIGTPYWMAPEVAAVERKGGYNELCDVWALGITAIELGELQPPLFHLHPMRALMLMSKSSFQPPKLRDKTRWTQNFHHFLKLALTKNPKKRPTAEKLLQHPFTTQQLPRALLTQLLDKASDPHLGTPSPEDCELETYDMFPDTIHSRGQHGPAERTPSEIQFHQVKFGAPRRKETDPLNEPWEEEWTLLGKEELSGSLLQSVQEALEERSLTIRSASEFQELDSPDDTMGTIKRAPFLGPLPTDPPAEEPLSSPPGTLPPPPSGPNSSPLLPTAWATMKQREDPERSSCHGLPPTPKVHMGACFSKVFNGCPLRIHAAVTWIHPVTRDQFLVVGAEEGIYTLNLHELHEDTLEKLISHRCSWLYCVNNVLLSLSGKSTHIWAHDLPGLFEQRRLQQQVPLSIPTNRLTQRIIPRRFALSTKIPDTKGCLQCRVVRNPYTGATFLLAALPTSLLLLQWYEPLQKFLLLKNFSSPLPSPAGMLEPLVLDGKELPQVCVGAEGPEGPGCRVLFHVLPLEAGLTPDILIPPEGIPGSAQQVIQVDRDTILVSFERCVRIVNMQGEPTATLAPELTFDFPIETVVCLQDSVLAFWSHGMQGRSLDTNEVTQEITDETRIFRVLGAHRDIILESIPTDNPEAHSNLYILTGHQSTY
Text: as §1

| Compound | % Ctrl, TLK1 (panel of 442 kinases [1]) [% Ctrl] | KINOMEscan: MAP4K2 (panel of 442 kinases [2]) |
| --- | --- | --- |
| COc1cc(C(=O)N2CCC(N3CCN(C)CC3)CC2)ccc1Nc1ncc2c(n1)N(C)c1ccccc1C(=O)N2C [15 (LRRK2-IN-1)] | 100 | 100 |
| COc1cc(C(=O)N2CCC(N3CCN(C)CC3)CC2)ccc1Nc1ncc2c(n1)N(C1CCCC1)c1ccccc1C(=O)N2C [Compound 25, 11-cyclopentyl-2-((2-methoxy-4-(4-(4-methylpiperazin-1-yl)piperidine-1-carbonyl)phenyl)amino)-5-methyl-5H-benzo[e]pyrimido[5,4-b][1,4]diazepin-6(11H)-one] | 74 | 100 |
| CCOc1cc(C(=O)N2CCC(N3CCN(C)CC3)CC2)ccc1Nc1ncc2c(n1)N(C1CCCC1)c1ccccc1C(=O)N2C [Compound 26] | 90 | 92 |
